Reference: US8124634B2, “CB1 receptor modulators” (7TM Pharma A/S, priority 2006, dated 2012)

Target: T1, human CB1 receptor (Homo sapiens, UniProt P21554)
T1 construct: expressed in transfected cells; membranes
Experiment: Cannabinoid Receptor-1 functional assay: inhibition of CP55940-induced [35S]GTPγS binding to membranes of CHO-K1 cells expressing human CB1
Type: biochemical
Conditions: 3 nM CP55940, hCB1 membranes, [35S]GTPγS SPA; read-out: IC50 value for antagonizing a CB1 receptor agonist
Excerpt: Transfection and Cell Culture—The cDNA encoding the human CB1 (Cannabinoid Receptor-1) receptor (GenBank accession number NM_016083) was cloned from a human adipose tissue cDNA library and cloned into the eukaryotic expression vector pcDNA3.1 (Invitrogen).
Chinese Hamster Ovary cells (CHO-K1) stably expressing recombinant human CB1 were generated by transfecting the plasmid containing the coding sequence of the human CB1 receptor in CHO-K1 cells, using lipofectamin, according to the manufacturer instructions. Resistant clones were selected in the presence of 600 μg/ml G418 (Life technology). Stably transfected CHO-K1 cells were maintained in Ham's F-12 culture medium (Invitrogen), supplemented with 10% fetal calf serum (Invitrogen), 100 U/ml penicillin, 100 μg/ml streptomycin (Life Technology), and 600 μg/ml G418.
Cannabinoid Receptor-1 Functional Assay.
Functional activities of the above examples of compounds of the invention were assessed in vitro by measuring their ability to inhibit CP55940-induced [^35S]GTPγS binding to membranes prepared from CHO-K1 cells expressing the human CB1 receptor (described in Transfection and Cell Culture). CP55940 is a well known non-selective CB1 and CB2 receptor agonist (e.g Felder et al., 1995, Molecular Pharmacology, (48) 443-50). Membranes were prepared by a standard procedure. Briefly, cells were harvested using 10 mM EDTA and collected by centrifugation. Pelleted cells were homogenized in ice-cold 20 mM Hepes (pH 7.4),10 mM EDTA and protease inhibitors (Complete protease inhibitor cocktail tablet, Roche) using an Ultra Turrax Homogenizer. The homogenate was centrifuged at 14 000 rpm for 45 min. at 4° C. The resultant pellet was resuspended in the same buffer but with only 0.1 mM EDTA and was again centrifuged at 14 000 rpm for 45 min. at 4° C. The resulting pellet (membranes) was resuspended in 20 mM Hepes (pH 7.4), 0.1 mM EDTA, 2 mM MgCl2 and protease inhibitors and protein concentration was determined by Micro BCA Protein Assay Reagent Kit (Pierce Biotechnology) according to the manufacturer instructions. The [^35S]GYPγS SPA (Scintillation Proximity Assay) binding assay was performed by incubating 5 μg/well hCB1-membranes with 1 nM [^35S]GYPγS (Perkin Elmer—NEG 030H) in the presence of 3 nM of CP55940 and various concentrations of the test compounds at room temperature for 1 hr in 96-well microtiter plates. 0.4 mg/well SPA beads (PVT-WGA; RPNQ0001 Amersham Pharmacia Biotech) were then added and the incubation continued for further 30 min. on an orbital shaker. The assay buffer contained 50 mM HEPES (pH 7.5), 50 mM NaCl, 2.5 mM MgCl2, 0.1% BSA, 1 μM GDP and 100 μg/ml Saponin. Microtiter plates were centrifuged at 1500 rpm for 5 min. and radioactivity was read immediately using a Topcounter (PerkinElmer Life Sciences). Data were analyzed and IC50 values determined by non-linear regression using the Prism software (GraphPad Software, San Diego).

T1 sequence (P21554 whole entry): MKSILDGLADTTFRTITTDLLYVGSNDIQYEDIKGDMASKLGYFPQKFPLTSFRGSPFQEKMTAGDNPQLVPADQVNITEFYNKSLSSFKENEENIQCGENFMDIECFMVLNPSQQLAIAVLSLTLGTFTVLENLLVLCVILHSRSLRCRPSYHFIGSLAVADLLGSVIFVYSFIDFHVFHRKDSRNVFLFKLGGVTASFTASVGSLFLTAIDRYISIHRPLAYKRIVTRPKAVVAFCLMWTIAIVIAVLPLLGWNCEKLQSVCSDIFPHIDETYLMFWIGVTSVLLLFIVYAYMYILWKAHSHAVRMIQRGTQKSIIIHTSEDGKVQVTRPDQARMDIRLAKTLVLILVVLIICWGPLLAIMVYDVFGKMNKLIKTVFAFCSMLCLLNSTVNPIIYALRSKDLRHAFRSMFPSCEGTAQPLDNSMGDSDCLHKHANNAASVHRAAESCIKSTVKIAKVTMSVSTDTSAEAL

SMILES | IC50
CC(c1ccc(S(C)(=O)=O)cc1)N(C)C(=O)c1nn(-c2ccccc2Cl)c(-c2ccc(Cl)cc2)c1CC(=O)O (stereo not shown) [[1.8], (1-(2-Chloro-phenyl)-5-(4-chloro-phenyl)-3-{methyl-[1-(4-methylsufonyl-phenyl)-ethyl]-carbamoyl}-1H-pyrazol-4-yl)-acetic acid] | 300 to 3000 nM
C[C@H](c1ccc(OC(F)(F)F)cc1)N(C)C(=O)c1nn(-c2ccccc2Cl)c(-c2ccc(Cl)cc2)c1CC(=O)O [[1.9], (1-(2-Chloro-phenyl)-5-(4-chloro-phenyl)-3-{methyl-[(R)-1-(4-trifluoromethoxy-phenyl)-ethyl]-carbamoyl}-1H-pyrazol-4-yl)-acetic acid] | < 300 nM
CC(C)(Cc1ccccc1)NC(=O)c1nn(-c2ccccc2Cl)c(-c2ccc(Cl)cc2)c1Cc1nnn[nH]1 [[2.2], 1-(2-Chloro-phenyl)-5-(4-chloro-phenyl)-4-(1H-tetrazol-5-ylmethyl)-1H-pyrazole-3-carboxylic acid (1,1-dimethyl-2-phenyl-ethyl)-amide] | < 300 nM
C[C@@H](NC(=O)c1nn(-c2ccccc2Cl)c(-c2ccc(Cl)cc2)c1Cc1nn[nH]n1)c1ccc(Br)cc1 [[2.3], 1-(2-Chloro-phenyl)-5-(4-chloro-phenyl)-4-(1H-tetrazol-5-ylmethyl)-1H-pyrazole-3-carboxylic acid [(R)-1-(4-bromo-phenyl)-ethyl]-amide] | < 300 nM
C[C@H](NC(=O)c1nn(-c2ccccc2Cl)c(-c2ccc(Cl)cc2)c1Cc1nnn[nH]1)c1ccc(Br)cc1 [[2.4], 1-(2-Chloro-phenyl)-5-(4-chloro-phenyl)-4-(1H-tetrazol-5-ylmethyl)-1H-pyrazole-3-carboxylic acid [(S)-1-(4-bromo-phenyl)-ethyl]-amide] | 300 to 3000 nM
CC(C)(Cc1ccc(F)cc1)NC(=O)c1nn(-c2ccccc2Cl)c(-c2ccc(Cl)cc2)c1Cc1nn[nH]n1 [[2.5], 5-(4-Chloro-phenyl)-1-(2-chloro-phenyl)-4-(2H-tetrazol-5-ylmethyl)-1H-pyrazole-3-carboxylic acid [2-(4-fluoro-phenyl)-1,1-dimethyl-ethyl]-amide] | < 300 nM
C[C@@H](NC(=O)c1nn(-c2ccccc2Cl)c(-c2ccc(Cl)cc2)c1Cc1nn[nH]n1)c1ccc(C(F)(F)F)cc1 [[2.6], 5-(4-Chloro-phenyl)-1-(2-chloro-phenyl)-4-(2H-tetrazol-5-ylmethyl)-1H-pyrazole-3-carboxylic acid [(R)-1-(4-trifluoromethyl-phenyl)-ethyl]-amide] | < 300 nM
CC(C)(NC(=O)c1nn(-c2ccccc2Cl)c(-c2ccc(Cl)cc2)c1Cc1nnn[nH]1)c1ccc(F)cc1 [[2.7], 1-(2-Chloro-phenyl)-5-(4-chloro-phenyl)-4-(1H-tetrazol-5-ylmethyl)-1H-pyrazole-3-carboxylic acid [1-(4-fluoro-phenyl)-1-methyl-ethyl]-amide] | 300 to 3000 nM
C[C@@H](NC(=O)c1nn(-c2ccccc2Cl)c(-c2ccc(Cl)cc2)c1Cc1nnn[nH]1)c1ccc(F)cc1 [[2.8], 1-(2-Chloro-phenyl)-5-(4-chloro-phenyl)-4-(1H-tetrazol-5-ylmethyl)-1H-pyrazole-3-carboxylic acid [(R)-1-(4-fluoro-phenyl)-ethyl]-amide] | < 300 nM
C[C@@H](NC(=O)c1nn(-c2ccccc2Cl)c(-c2ccc(Cl)cc2)c1Cc1nnn[nH]1)c1ccc(Cl)cc1 [[2.9], 1-(2-Chloro-phenyl)-5-(4-chloro-phenyl)-4-(1H-tetrazol-5-ylmethyl)-1H-pyrazole-3-carboxylic acid [(R)-1-(4-chloro-phenyl)-ethyl]-amide] | < 300 nM
CC(NC(=O)c1nn(-c2ccccc2Cl)c(-c2ccc(Cl)cc2)c1Cc1nnn[nH]1)c1ccc(C(F)(F)F)c(F)c1 (stereo not shown) [[2.10], 5-(4-Chloro-phenyl)-1-(2-chloro-phenyl)-4-(1H-tetrazol-5-ylmethyl)-1H-pyrazole-3-carboxylic acid [1-(3-fluoro-4-trifluoromethyl-phenyl)-ethyl]-amide] | < 300 nM
CCC(NC(=O)c1nn(-c2ccccc2Cl)c(-c2ccc(Cl)cc2)c1Cc1nnn[nH]1)c1ccc(Br)cc1 (stereo not shown) [[2.11], 1-(2-Chloro-phenyl)-5-(4-chloro-phenyl)-4-(1H-tetrazol-5-ylmethyl)-1H-pyrazole-3-carboxylic acid [1-(4-bromo-phenyl)-propyl]-amide] | < 300 nM
C[C@@H](NC(=O)c1nn(-c2ccccc2Cl)c(-c2ccc(Cl)cc2)c1Cc1nnn[nH]1)c1cccc(C(F)(F)F)c1 [[2.12], 1-(2-Chloro-phenyl)-5-(4-chloro-phenyl)-4-(1H-tetrazol-5-ylmethyl)-1H-pyrazole-3-carboxylic acid [(R)-1-(3-trifluoromethyl-phenyl)-ethyl]-amide] | < 300 nM
CC(NC(=O)c1nn(-c2ccccc2Cl)c(-c2ccc(Cl)cc2)c1Cc1nnn[nH]1)c1ccc(Cl)c(Cl)c1 (stereo not shown) [[2.13], 1-(2-Chloro-phenyl)-5-(4-chloro-phenyl)-4-(1H-tetrazol-5-ylmethyl)-1H-pyrazole-3-carboxylic acid [1-(3,4-dichloro-phenyl)-ethyl]-amide] | < 300 nM
C[C@H](c1ccc(C(F)(F)F)cc1)N(C)C(=O)c1nn(-c2ccccc2Cl)c(-c2ccc(Cl)cc2)c1Cc1nnn[nH]1 [[2.14], 1-(2-Chloro-phenyl)-5-(4-chloro-phenyl)-4-(1H-tetrazol-5-ylmethyl)-1H-pyrazole-3-carboxylic acid methyl-[(R)-1-(4-trifluoromethyl-phenyl)-ethyl]-amide] | < 300 nM
CCC(NC(=O)c1nn(-c2ccccc2Cl)c(-c2ccc(Cl)cc2)c1Cc1nnn[nH]1)c1ccc(C(F)(F)F)cc1 (stereo not shown) [[2.15], 1-(2-Chloro-phenyl)-5-(4-chloro-phenyl)-4-(1H-tetrazol-5-ylmethyl)-1H-pyrazole-3-carboxylic acid [1-(4-trifluoromethyl-phenyl)propyl]-amide] | < 300 nM
CC(NC(=O)c1nn(-c2ccccc2Cl)c(-c2ccc(Cl)cc2)c1Cc1nnn[nH]1)c1ccc(F)c(F)c1 (stereo not shown) [[2.16], 1-(2-Chloro-phenyl)-5-(4-chloro-phenyl)-4-(1H-tetrazol-5-ylmethyl)-1H-pyrazole-3-carboxylic acid [1-(3,4-difluoro-phenyl)-ethyl]-amide] | < 300 nM
C[C@@H](NC(=O)c1nn(-c2ccccc2Cl)c(-c2ccc(Cl)cc2)c1Cc1nnn[nH]1)c1cccc(F)c1 [[2.17], 1-(2-Chloro-phenyl)-5-(4-chloro-phenyl)-4-(1H-tetrazol-5-ylmethyl)-1H-pyrazole-3-carboxylic acid [(R)-1-(3-fluoro-phenyl)-ethyl]-amide] | < 300 nM
CC(NC(=O)c1nn(-c2ccccc2Cl)c(-c2ccc(Cl)cc2)c1Cc1nnn[nH]1)c1cc(F)cc(F)c1 (stereo not shown) [[2.18], 1-(2-Chloro-phenyl)-5-(4-chloro-phenyl)-4-(1H-tetrazol-5-ylmethyl)-1H-pyrazole-3-carboxylic acid [1-(3,5-difluoro-phenyl)-ethyl]-amide] | < 300 nM
CC(NC(=O)c1nn(-c2ccccc2Cl)c(-c2ccc(Cl)cc2)c1Cc1nn[nH]n1)c1ccc(Cl)c(F)c1 (stereo not shown) [[2.19], 5-(4-Chloro-phenyl)-1-(2-chloro-phenyl)-4-(2H-tetrazol-5-ylmethyl)-1H-pyrazole-3-carboxylic acid [1-(4-chloro-3-fluoro-phenyl)-ethyl]-amide] | < 300 nM
CC(NC(=O)c1nn(-c2ccccc2Cl)c(-c2ccc(Cl)cc2)c1Cc1nn[nH]n1)c1ccc(Br)cc1F (stereo not shown) [[2.20], 1-(2-Chloro-phenyl)-5-(4-chloro-phenyl)-4-(2H-tetrazol-5-ylmethyl)-1H-pyrazole-3-carboxylic acid [1-(4-bromo-2-fluoro-phenyl)-ethyl]-amide] | < 300 nM
C[C@@H](NC(=O)c1nn(-c2ccccc2Cl)c(-c2ccc(Cl)cc2)c1Cc1nn[nH]n1)c1ccc(Cl)c(Cl)c1 [[2.22], 1-(2-Chloro-phenyl)-5-(4-chloro-phenyl)-4-(2H-tetrazol-5-ylmethyl)-1H-pyrazole-3-carboxylic acid [(R)-1-(3,4-dichloro-phenyl)-ethyl]-amide] | < 300 nM
